# Counter-ions that a name gives are not always drawn.
# Molecular target: T1, squalene synthase (Rattus norvegicus, UniProt Q02769)
# T1 construct: Microsomes are prepared by centrifugation (100,000 g) and then resuspended in the assay buffer; from tissue; host or cells: liver microsomes of male Sprague-Dawley rats (animals from Taconic Farms)
# T1 sequence (Q02769 1-416): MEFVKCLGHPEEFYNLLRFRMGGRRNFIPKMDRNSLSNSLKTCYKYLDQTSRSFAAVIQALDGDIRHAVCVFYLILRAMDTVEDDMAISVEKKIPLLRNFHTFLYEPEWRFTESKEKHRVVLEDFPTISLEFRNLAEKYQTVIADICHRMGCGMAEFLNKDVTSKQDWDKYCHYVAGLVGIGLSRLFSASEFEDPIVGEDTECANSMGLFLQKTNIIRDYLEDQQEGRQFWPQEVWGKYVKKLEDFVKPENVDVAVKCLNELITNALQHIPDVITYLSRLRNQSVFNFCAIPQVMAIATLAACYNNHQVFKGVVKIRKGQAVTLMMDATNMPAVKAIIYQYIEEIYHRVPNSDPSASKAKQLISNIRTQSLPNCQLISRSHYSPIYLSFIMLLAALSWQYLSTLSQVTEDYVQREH
# Assay: Squalene Synthase Inhibition Assay (rat liver microsomes, [3H]FPP substrate, HEPES buffer)
# Assay type: biochemical, male Sprague-Dawley rats
# Protocol: Squalene Synthase Inhibition Assay
# The squalene synthase assay used is described by Amin et al. in "Bisphosphonates Used for the Treatment of Bone Disorders Inhibit Squalene Synthase and Cholesterol Biosynthesis," Journal of Lipid Research, 33, 1657-1663 (1992).
# I. Preparation of Assay Substances:
# Test solutions are prepared fresh in 100% DMSO or dH2 O. Subsequent dilutions are made in the same solvent. Compounds are tested initially at 1 μM (final concentrations).
# Potassium Phosphate (50 mM,) pH 7.4, and HEPES (4-(2-hydroxyethyl)-1-piperazineethanesulfonic acid, 50 mM) pH 7.4 stock buffers are prepared and stored at 4° C. until use.
# C) Microsomal Enzyme Preparation:
# Fresh livers from male Sprague-Dawley rats (Taconic Farms, Germantown, N.Y.) weighing 150-200 g are collected after exsanguination. All subsequent procedures are performed at 4° C. The liver is homogenized in the assay buffer (50 mM, pH 7.4). Cellular fractions are separated as described by Popjak, G. in "Enzymes of sterol biosynthesis in liver and intermediates of sterol biosynthesis," Meth. Enzymol. 15 393-454 (1969). Microsomes are prepared by centrifugation (100,000 g) and then resuspended in the assay buffer. Microsomes are rehomogenized with a motor-driven Teflon pestle to yield a uniform suspension (~30 mg protein/ml), aliquoted, and stored at -80° C. until use.
# II. Squalene Synthase Assay
# The procedure is a modification of those described by Popjack (vida supra) and Poulter et al. in "Squalene synthase. Inhibition by ammonium analogues of carbocationic intermediates in the conversion of presqualene diphosphate to squalene" J. Am. Chem. Soc. 111, 3734-3739 (1989). The assay is performed in 1 ml of 50 mM assay buffer, pH 7.4, containing 10 mM MgCl2, 0.5 mM NADPH, microsomes (30 μg protein), a test compound dissolved in distilled water or dimethylsulfoxide, and substrate [^3 H]FPP (0.5 μM, 0.27 Ci/mmol) in a 16×125 mm glass screw-cap tube. All components except [3H]FPP are preincubated for 10 min. at 37° C. The reaction is initiated by the addition of [^3 H]FPP. After 10 min at 37° C., the reaction is terminated by the addition of 1 ml 15% KOH in ethanol. The tubes are incubated at 65° C. for 30 min. to solubilize proteins. The mixture is extracted with 5 ml petroleum ether for 10 min. After freezing the lower aqueous phase, the organic phase is transferred to glass tubes containing 2 ml distilled water. After washing the lower aqueous phase is frozen and the petroleum ether phase is removed and counted with 10 ml Ready Safe liquid scintillation cocktail using a Beckman LS-9000 scintillation counter. DPM values are adjusted against a blank (no enzyme).
# The difference in radioactivity in the presence and absence of the test compound is used to determine the level of inhibition. The IC50 values are calculated using a linear regression program of Tallarida and Murray (1987). Tallarida, R. J. and Murray, R. B. Manual of pharmacologic calculations with computer programs. Springer-Verlag, 1987.
row,IC50 [µM],Compound
1,0.077,"CC[C@@H](COCc1ccc(-c2nc3ccccc3o2)cc1)NC(=O)CC(O)(CC(=O)O)C(=O)O (stereo partly drawn) [Example 22, 3-{N-[1-(4-Benzoxazol-2-ylbenzyloxy)but-2-yl]carbamoyl}-3-hydroxy-3-carboxybutanoic acid, disodium salt]"
2,2.6,"O=C(O)CC(NC(=O)NC1CCCCC1OCc1ccc(-c2nc3ccccc3o2)cc1)C(=O)O [Example 30, 3-(R)-(N-{2-α-[4-(Benzoxazol-2-yl)benzyloxy]cyclohexyl}-β-carbamoylaza)-3-carboxypropanoic acid]"
3,0.1,"COc1cccc(-c2ccc(C3(O)CCCN(C(=O)CC(O)(CC(=O)O)C(=O)O)C3)cc2)c1 (stereo not drawn) [Example 24, disodium salt]"
4,0.027,"O=C(O)CC(O)(CC(=O)N1CCCC(O)(c2ccc(-c3ccc4ccccc4c3)cc2)C1)C(=O)O (stereo not drawn) [Example 1, 4-[3-Hydroxy-3-(4-naphth2-ylphenyl)piperidin-1-ylcarbonyl]-3-hydroxy-3-carboxybutanoic acid]"
5,0.051,"O=C(O)CC(O)(CC(=O)N1CCCC(COCc2ccc(-c3nc4ccccc4o3)cc2)C1)C(=O)O (stereo not drawn) [Example 19, 4-[3-(4-(Benzoxazol-2-yl)benzyloxymethyl)piperidin-1-ylcarbonyl]-3-hydroxy-3-carboxybutanoic acid, disodium salt]"
6,0.1,"CC(O)(CNC(=O)C(O)(CC(=O)O)CC(=O)O)c1ccc(-c2ccc3ccccc3c2)cc1 (stereo not drawn) [Example 28, 3-Hydroxy-3-{-N-[2-hydroxy-2-(4-naphthalen-2-yl-phenyl)prop-2-yl]carbamoyl}pentandioic acid, disodium salt]"
7,0.036,"4-{3-[4-(2-methoxyquinolin-6-yl)phenyl]-1,2,5,6-tetrahydro-pyridylcarbonyl}-3-hydroxy-3-carboxybutanoic acid, disodium salt [Example 12]"
8,10,CCOC(=O)CC(O)(CC(=O)N[C@@H]1CCCC[C@H]1OCc1ccc(-c2nc3ccccc3o2)cc1)C(=O)OCC (relative stereo)
9,0.19,"O=C(O)CC(O)(CC(=O)N[C@@H]1CCCC[C@H]1OCc1ccc(-c2nc3ccccc3o2)cc1)C(=O)O (relative stereo) [Example 5, 4-[2-α-(4-Benzoxazol-2-ylbenzyloxy)cyclohexyl-β-carbamoyl]-3-hydroxy-3-carboxybutyric acid]"

# — patent US5556990A, “Polyarylcarbamoylaza- and -carbamoylalkanedioic acids” (Rhone-Poulenc Rorer Pharmaceuticals Inc., priority 1994, dated 1996)
